From patent US5328909A, “Cyclopropenone derivatives” (Mitsubishi Kasei Corporation, priority 1991, dated 1994)
Where a name gives a salt, the structure may show the parent alone.

biological target: T1, m-calpain (Rattus norvegicus, UniProt Q07009); test: Thiol protease inhibitory activity against m-calpain purified from rat brain; type: biochemical; details: not given
T1 construct: m-calpain was purified from rat brain; from tissue; host or cells: rat brain
T1 sequence (Q07009 20-700 limits assumed): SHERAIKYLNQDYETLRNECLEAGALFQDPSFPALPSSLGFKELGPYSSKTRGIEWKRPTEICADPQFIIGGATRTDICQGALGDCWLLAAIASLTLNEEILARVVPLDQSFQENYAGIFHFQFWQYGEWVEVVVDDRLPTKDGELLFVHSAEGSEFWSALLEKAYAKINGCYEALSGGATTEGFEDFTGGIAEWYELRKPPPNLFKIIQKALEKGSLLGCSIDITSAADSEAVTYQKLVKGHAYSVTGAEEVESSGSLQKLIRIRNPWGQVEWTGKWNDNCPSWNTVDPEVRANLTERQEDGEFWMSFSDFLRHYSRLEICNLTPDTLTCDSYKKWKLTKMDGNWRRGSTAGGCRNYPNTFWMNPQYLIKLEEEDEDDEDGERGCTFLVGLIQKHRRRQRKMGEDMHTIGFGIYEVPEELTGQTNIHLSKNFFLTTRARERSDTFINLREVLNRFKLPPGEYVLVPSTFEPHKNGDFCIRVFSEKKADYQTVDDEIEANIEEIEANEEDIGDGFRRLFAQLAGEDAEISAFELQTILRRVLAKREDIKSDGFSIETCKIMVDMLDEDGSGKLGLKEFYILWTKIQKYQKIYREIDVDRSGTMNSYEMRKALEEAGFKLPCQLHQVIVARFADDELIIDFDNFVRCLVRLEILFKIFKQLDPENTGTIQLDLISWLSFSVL
T1 sequence (Q64537 1-270 partner): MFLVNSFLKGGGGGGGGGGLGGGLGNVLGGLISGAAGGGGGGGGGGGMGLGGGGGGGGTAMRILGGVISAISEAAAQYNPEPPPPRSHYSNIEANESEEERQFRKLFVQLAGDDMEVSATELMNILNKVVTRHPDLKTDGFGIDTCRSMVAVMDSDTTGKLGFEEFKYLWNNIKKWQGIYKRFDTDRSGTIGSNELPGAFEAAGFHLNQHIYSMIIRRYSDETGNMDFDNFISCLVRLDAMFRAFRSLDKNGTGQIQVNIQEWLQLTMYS
Description: Inhibitory activity against papain (P-3125, Sigma) and cathepsin B (C-6286, Sigma) was assayed according to the method described in a literature [Biochemical Journal, 201, 189 (1982)]. Capthesin L was purified from rat kidney according to the method in a literature [Journal of Biochemistry, 100, 35 (1986)], and the inhibitory activity against it was assayed in the same manner as described in the above literature for cathepsin B. Further, m-calpain was purified from rat brain according to a known method [Journal of Biological Chemistry, 254, p.3210 (1984)] and the inhibitory activity against it was assayed by a method described in a literature [Journal of Biological Chemistry, 259, 12489 (1984)]. The results are showing in Tables 3 and 4. It is evident from Tables 3 and 4 that the compounds in the present invention have a potent inhibitory activity against thiol proteases such as papain, cathepsin B, cathepsin L, m-calpain or the like.

`CC(C)C[C@H](NC(=O)Oc1ccccc1)C(=O)N[C@@H](C(C)C)[C@@H](O)c1c(-c2ccccc2)c1=O` [33 (No. 102), 2-[(1S, 2S)-1-hydroxy-3-methyl-2-((S)-4-methyl-2-phenoxycarbonylamino)valerylamino]-3-phenylcyclopropenone] showed an IC50 of 840 nM.

same assay, conditions: Table 4; rat brain enzyme; read-out: Inhibitory activity against m-calpain IC50

Compared with `CC(C)C[C@H](NC(=O)OCc1ccccc1)C(=O)N[C@@H](Cc1ccccc1)C(O)c1cc1=O` (stereo partly drawn) [9 (No. 26), 2-[(2S)-2-((S)-2-benzyloxycarbonylamino-4-methylvalerylamino)-1-hydroxy-3-phenylpropyl]cyclopropenone], `CC(C)C[C@H](NC(=O)COCc1ccccc1)C(=O)N[C@@H](C(C)C)[C@@H](O)c1c(-c2ccccc2)c1=O` [54 (No. 166), 2-[(1S, 2S)-2-((S)-2-benzyloxyacetylamino-4-methylvalerylamino)-1-hydroxy-3-methylbutyl]-3-phenylcyclopropenone] is 4.5-fold lower in IC50: 5000 nM for the first, 1100 nM for the second. The second is the more potent here.

First: CC(C)COC(=O)N[C@@H](CC(C)C)C(=O)N[C@@H](C(C)C)[C@@H](O)c1c(-c2ccccc2)c1=O [20 (No. 72), 2-[(1S, 2S)-1-hydroxy-2-((S)-2-isobutoxycarbonylamino-4-methylvalerylamino)-3-methylbutyl]-3-phenylcyclopropenone]
Second: CC(C)COC(=O)N[C@@H](CC(C)C)C(=O)N[C@@H](C(C)C)[C@H](O)c1c(-c2ccccc2)c1=O [21 (No. 72), 2-[(1R, 2S)-1-hydroxy-2-((S)-2-isobutoxycarbonylamino-4-methylvalerylamino)-3-methylbutyl]-3-phenylcyclopropenone]
The IC50 of the first is 2.3-fold lower: 1300 nM for the first, 3000 nM for the second. The first is the more potent here.

`CC(C)C[C@H](NC(=O)OCc1ccccn1)C(=O)N[C@@H](C(C)C)[C@@H](O)c1c(-c2ccccc2)c1=O` [29 (No. 97), 2-[(1s, 2S)-1-hydroxy-3-methyl-2-{(S)-4-methyl-2-(2-pyridylmethoxycarbonylamino)valerylamino}butyl]-3-phenylcyclopropenone hydrochloride] and `CC(C)C[C@H](NC(=O)OCc1ccncc1)C(=O)N[C@@H](C(C)C)[C@@H](O)c1c(-c2ccccc2)c1=O` [31 (No. 99), 2-[(1S, 2S)-1-hydroxy-3-methyl-2-{(S)-4-methyl-2-(4-pyridylmethoxycarbonylamino)valerylamino}butyl]-3-phenylcyclopropenone hydrochloride] are within 1.5-fold of each other in IC50: 1700 nM for the first, 1300 nM for the second.

`CC(C)C[C@H](NC(=O)OCc1ccncc1)C(=O)N[C@@H](C(C)C)[C@H](O)c1c(-c2ccccc2)c1=O` [32 (No. 99), 2-[(1R, 2S)-1-hydroxy-3-methyl-2-{(S)-4-methyl-2-(4-pyridylmethoxycarbonylamino)valerylamino}butyl]-3-phenylcyclopropenone hydrochloride] and `CC(C)C[C@H](NC(=O)Cc1ccccc1)C(=O)N[C@@H](C(C)C)[C@@H](O)c1c(-c2ccccc2)c1=O` [41 (No. 132), 2-[(1S, 2S)-1-hydroxy-3-methyl-2-((S)-4-methyl-2-phenylacetylaminovalerylamino)butyl]-3-phenylcyclopropenone] are within 1.5-fold of each other in IC50: 1200 nM for the first, 1400 nM for the second.

`CC(C)CCC(=O)N[C@@H](CC(C)C)C(=O)N[C@@H](C(C)C)[C@@H](O)c1c(-c2ccccc2)c1=O` [37 (No. 114), 2-[(1S, 2S)-1-hydroxy-2-((S)-2-isohexanoylamino-4-methylvalerylamino)-3-methylbutyl]-3-phenylcyclopropenone] and `CC(=O)CCC(=O)N[C@@H](CC(C)C)C(=O)N[C@@H](C(C)C)[C@@H](O)c1c(-c2ccccc2)c1=O` [44 (No. 137), 2-[(1S, 2S)-1-hydroxy-3-methyl-2-(S)-4-methyl-2-(4-oxovalerylamino)valerylamino]-3-phenylcyclopropenone] are within 1.5-fold of each other in IC50: 2100 nM for the first, 3000 nM for the second.

Going from `CCCCCCCCCCCC(=O)N[C@@H](CC(C)C)C(=O)N[C@@H](C(C)C)[C@@H](O)c1c(-c2ccccc2)c1=O` [38 (No. 120), 2-[(1S, 2S)-1-hydroxy-2-((S)-2-lauroylamino-4-methylvalerylamino)^- 3-methylbutyl]-3-phenylcyclopropenone] to `CC(C)C[C@H](NC(=O)CCCc1ccccc1)C(=O)N[C@@H](C(C)C)[C@@H](O)c1c(-c2ccccc2)c1=O` [43 (No. 134), 2-[(1S, 2S)-1-hydroxy-3-methyl-2-{(S)-4-methyl-2-(4-phenylbutyrylamino)valerylamino}butyl]-3-phenylcyclopropenone], the IC50 falls from 4000 nM to 1700 nM (2.4-fold).

`CC(C)C[C@H](NC(=O)CCC1CCCCC1)C(=O)N[C@@H](C(C)C)[C@@H](O)c1c(-c2ccccc2)c1=O` [39 (No. 124), 2-[(1S, 2S)-2-{(S)-2-(3-cyclohexylpropionylamino)-4-methylvalerylamino} -1-hydroxy-3-methylbutyl]-3-phenylcyclopropenone] and `CC(C)C[C@H](NC(=O)C1CCCCC1)C(=O)N[C@@H](C(C)C)[C@@H](O)c1c(-c2ccccc2)c1=O` [40 (No. 129), 2-[(1S, 2S)-2-((S)-2-cyclohexylcarbonylamino-4-methylvalerylamino)-1-hydroxy-3-methylbutyl]-3-phenylcyclopropenone] are within 1.5-fold of each other in IC50: 1900 nM for the first, 2600 nM for the second.

Going from `CC(C)C[C@H](NC(=O)CCc1ccccc1)C(=O)N[C@@H](C(C)C)[C@@H](O)c1c(-c2ccccc2)c1=O` [42 (No. 133), 2-[(1S, 2S)-1-hydroxy-3-methyl-2-{(S)-4-methyl-2-(3-phenylpropionylamino)valerylamino}butyl]-3-phenylcyclopropenone] to `CC(C)C[C@H](NC(=O)CCOc1ccccc1)C(=O)N[C@@H](C(C)C)[C@@H](O)c1c(-c2ccccc2)c1=O` [55 (No. 167), 2-[(1S, 2S)-1-hydroxy-3-methyl-2-{(S)-4-methyl-2-(3-phenoxypropionylamino)valerylamino}butyl]-3-phenylcyclopropenone], the IC50 falls from 1500 nM to 800 nM (1.9-fold). The second is the more potent here.

Going from `CC(C)C[C@H](NC(=O)CCC(=O)c1ccccc1)C(=O)N[C@@H](C(C)C)[C@@H](O)c1c(-c2ccccc2)c1=O` [45 (No. 140), 2-[(1S, 2S)-2-{(S)-2-(3-benzoylpropionylamino)-4-methylvalerylamino}-1-hydroxy-3-methylbutyl]-3-phenylcyclopropenone] to `CC(C)C[C@H](NC(=O)CCS(=O)(=O)c1ccccc1)C(=O)N[C@@H](C(C)C)[C@@H](O)c1c(-c2ccccc2)c1=O` [57 (No. 170)], the IC50 rises from 1000 nM to 3100 nM (3.1-fold). The first is the more potent here.

First: CC(C)C[C@H](NC(=O)COc1ccccc1)C(=O)N[C@@H](C(C)C)[C@@H](O)c1c(-c2ccccc2)c1=O [48 (No. 148), 2-[(1S, 2S)-1-hydroxy-3-methyl-2-((S)-4-methyl-2-phenoxyacetylaminovalerylamino)butyl]-3-phenylcyclopropenone]
Second: CC(C)C[C@H](NC(=O)COc1ccccc1Cl)C(=O)N[C@@H](C(C)C)[C@@H](O)c1c(-c2ccccc2)c1=O [50 (No. 152), 2-[(1S, 2S)-2-{(S)-2-(2-chlorophenoxyacetylamino)-4-methylvalerylamino}-1-hydroxy-3-methylbutyl]-3-phenylcyclopropenone]
The IC50 of the first is 1.9-fold lower: 630 nM for the first, 1200 nM for the second.

`CC(C)C[C@H](NC(=O)COc1ccc(Cl)cc1)C(=O)N[C@@H](C(C)C)[C@@H](O)c1c(-c2ccccc2)c1=O` [51 (No. 154), 2-[(1S, 2S)-2-{(S)-2-(4-chlorophenoxyacetylamino)-4-methylvalerylamino}-1-hydroxy-3-methylbutyl]-3-phenylcyclopropenone] and `CC(C)C[C@H](NC(=O)COc1cccc(Cl)c1Cl)C(=O)N[C@@H](C(C)C)[C@@H](O)c1c(-c2ccccc2)c1=O` [52 (No. 155), 2-[(1S, 2S)-2-{(S)-2-(2,3-dichlorophenoxyacetylamino)-4-methylvalerylamino}-1-hydroxy-3-methylbutyl]-3-phenylcyclopropenone] are within 1.5-fold of each other in IC50: 750 nM for the first, 740 nM for the second.

`COc1ccccc1OCC(=O)N[C@@H](CC(C)C)C(=O)N[C@@H](C(C)C)[C@@H](O)c1c(-c2ccccc2)c1=O` [53 (No. 161)] and `CC(C)C[C@H](NC(=O)CSc1ccccc1)C(=O)N[C@@H](C(C)C)[C@@H](O)c1c(-c2ccccc2)c1=O` [56 (No. 168), 2-[(1S, 2S)-1-hydroxy-3-methyl-2-((S)-4-methyl-2-phenylthioacetylaminovalerylamino}butyl]-3-phenylcyclopropenone] are within 1.5-fold of each other in IC50: 2300 nM for the first, 2200 nM for the second.
